In brackets after ≈: the same amount, converted by molar mass. Read-outs that look alike come from different tables or passages of the source.
Columns and labels:
[1] = test system: Methicillin Resistant Staphylococcus aureus strain USA 300, NRS384; assay: Minimum inhibitory concentration, broth micro-dilution (CLSI), S. aureus; format: cell-based; details: 35° C., 22 hours; for MIC: Staphylococcus aureus, MRSA / NRS 384 / USA300, 22 h
Summary of the method: (§1)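 Ten-point 2-fold series began at 4 μg/mL in protocol 2 and 0.5 μg/mL in protocol 3, in cation-adjusted MHB plus 0.002% Tween-80. Bacteria added to OD600 0.0005 final and incubated at 35° C for 22 hours per CLSI microdilution.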

[2] = test system: Escherichia coli MC4100 harboring the IMP4213 (E. coli IMP); assay: microbe, parasite or virus in culture; format: cell-based; details: 35° C., 22 hours; for MIC: Escherichia coli, 22 h, read-out: MIC (μg/mL) E. coli IMP, E. coli MC4100 IMP4213, increased outer-membrane permeability
Summary of the method: as §1

[3] = test system: Escherichia coli ATCC 25922; assay: Minimum inhibitory concentration, broth micro-dilution (CLSI), E. coli; format: cell-based; details: 35° C., 22 hours; for MIC: Escherichia coli, ATCC25922, 22 h
[4] = target: T1, SpsB (Staphylococcus aureus signal peptidase) (Staphylococcus aureus, UniProt P0A070); assay: cell-based; format: biochemical; details: SpsB IC50, whole-cell S. aureus (USA300 background, overexpressing SpsB) as SpsB source; fluorogenic peptide substrate, kinetic read 30 min
T1 construct: This assay uses a suspension of Staphylococcus aureus cells as a source of SpsB instead of recombinant SpsB protein; endogenous in cells; host or cells: S. aureus, USA300 background, overexpressing SpsB (whole-cell suspension from frozen pellets)
T1 sequence (P0A070 whole entry): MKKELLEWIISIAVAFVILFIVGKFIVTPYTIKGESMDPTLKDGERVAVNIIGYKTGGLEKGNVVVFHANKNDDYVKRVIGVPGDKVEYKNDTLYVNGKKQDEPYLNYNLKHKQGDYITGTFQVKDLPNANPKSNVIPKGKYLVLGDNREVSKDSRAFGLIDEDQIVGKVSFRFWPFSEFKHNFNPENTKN
Procedure: A kinetic fluorogenic enzyme activity assay was used to assess inhibition of SpsB (Staphylococcus aureus signal peptidase) activity and IC50s were determined. This assay uses a suspension of Staphylococcus aureus cells as a source of SpsB instead of recombinant SpsB protein.
Cell preparation: Luria broth (LB) was inoculated with S. aureus (USA300 background, overexpressing SpsB) and shaken at 37° C. until an OD600 nm of 1.5-2.0 was reached (˜4 hr). The culture was then diluted to an OD600 nm of 1.0 with LB, aliquoted and centrifuged at 10,000×g for 2 mins. The supernatant was removed and the pellet was resuspended in phosphate buffer (1×PBS, 12.5 mg/L MgCl2, 25 mg/L CaCl2, 0.1% Tween-80) to an OD600 nm of 0.5, then centrifuged again at 10,000x g for 2 mins. The supernatant was removed and the pellets were frozen at −20° C.
Test compounds were prepared in DMSO at a concentration of 10 mg/mL. These compound stocks were diluted into DMSO to a concentration of 25 μg/mL and serial 3-fold dilutions were made in DMSO, for a total of 11 compound concentrations. 20 nL of each compound solution was pre-spotted into a white 384-well plate (50 μL/well polypropylene, Nunc) using acoustic fluid transfer (Echo).
Frozen S. aureus pellets were resuspended in assay buffer (1x PBS, 12.5 mg/L MgCl2, 25 mg/L CaCl2, 0.1% Tween-80) to an OD600 nm of 0.05, then mixed 1:1 (v/v) with 20 μM substrate ((Dabcyl)βAla-KPAKAAE(Edans)) in assay buffer, and this solution was added (20 μL/well) to the 384-well plate that had been pre-spotted with compound. Fluorescence intensity was then immediately read kinetically for 30 minutes with 2 minute read intervals to monitor cleavage of the internally quenched peptide substrate (excitation wavelength=340 nm, emission wavelength=490 nm, Molecular Devices Spectramax M5). Reaction rate (slope) was plotted against inhibitor concentration to derive the IC50.

[5] = MRSA USA 300 NRS384, read-out: MIC (μg/mL) S. aureus
[6] = E. coli ATCC 25922, read-out: MIC (μg/mL) E. coli
[7] = read-out: MIC (μg/mL) S. aureus, MRSA USA 300 NRS384
[8] = read-out: MIC (μg/mL) E. coli, E. coli ATCC 25922

SMILES: CCCCCCCCCCCCCC(=O)N[C@@H](CCCCN)C(=O)N(C)[C@@H]1C(=O)N[C@@H](C)C(=O)N[C@H](C(=O)N[C@@H](C)C#N)Cc2ccc(OCCN)c(c2)-c2cc1ccc2OCCO [Compound 333]
- MIC [1, 5]: < 0.063 µg/mL
- MIC [2]: < 0.063 µg/mL
- MIC [3, 6]: 1 µg/mL (≈ 1.12 µM)
- IC50 [4]: 0.8 nM

SMILES: CCCCCCCCc1ccc(C(=O)N[C@@H](CCN)C(=O)N(C)[C@@H]2C(=O)N[C@@H](C)C(=O)N[C@H](C(=O)NCC#N)Cc3ccc(OCCN)c(c3)-c3cc2ccc3OCCN)c(F)c1 [Compound 184]
- MIC [1, 5]: 0.094 µg/mL (≈ 0.108 µM)
- MIC [2]: 0.012 µg/mL (≈ 0.0138 µM)
- MIC [3, 6]: 0.25 µg/mL (≈ 0.287 µM)
- IC50 [4]: 0.89 nM

SMILES: Cc1cc(CC(C)C)ccc1C(=O)N[C@@H](CCN)C(=O)N(C)[C@@H]1C(=O)N[C@@H](C)C(=O)N[C@H](C(=O)NCC#N)Cc2ccc(OCCN)c(c2)-c2cc1ccc2OCCN [Compound 218]
- MIC [1, 5]: 0.25 µg/mL (≈ 0.308 µM)
- MIC [2]: 0.031 µg/mL (≈ 0.0382 µM)
- MIC [3, 6]: 2 µg/mL (≈ 2.46 µM)
- IC50 [4]: 0.88 nM

SMILES: CCCCCCCCc1ccc(C)c(C(=O)N[C@@H](CCCCN)C(=O)N(C)[C@@H]2C(=O)N[C@@H](C)C(=O)N[C@H](C(=O)NCC#N)Cc3ccc(OCCN)c(c3)-c3cc2ccc3OCCN)c1 [Compound 422]
- MIC [1, 5]: 0.063 µg/mL (≈ 0.0703 µM)
- MIC [2]: 0.031 µg/mL (≈ 0.0346 µM)
- MIC [3, 6]: 1.5 µg/mL (≈ 1.67 µM)
- IC50 [4]: 1.1 nM

SMILES: CC(C)CCc1ccc(-c2ccc(C(=O)N[C@@H](CCN)C(=O)N(C)[C@@H]3C(=O)N[C@@H](C)C(=O)N[C@H](C(=O)NCC#N)Cc4ccc(OCCN)c(c4)-c4cc3ccc4OCCN)cc2)cc1 [Compound 177]
- MIC [1, 5]: 0.094 µg/mL (≈ 0.106 µM)
- MIC [2]: 0.016 µg/mL (≈ 0.018 µM)
- MIC [3, 6]: 0.19 µg/mL (≈ 0.214 µM)
- IC50 [4]: 1.1 nM

SMILES: CCCCCCCCCC(=O)N[C@H](CCO)C(=O)N[C@@H](CCN)C(=O)N(C)[C@@H]1C(=O)N[C@@H](C)C(=O)N[C@H](C(=O)NCC#N)Cc2ccc(OCCN)c(c2)-c2cc1ccc2OCCN [Compound 379]
- MIC [1, 7]: 0.25 µg/mL (≈ 0.28 µM)
- MIC [2]: 0.25 µg/mL (≈ 0.28 µM)
- MIC [3, 8]: 32 µg/mL (≈ 35.8 µM)
- IC50 [4]: 0.89 nM

SMILES: CCCCc1ccc(-c2ccc(C(=O)N[C@@H](CO)C(=O)N(C)[C@@H]3C(=O)N[C@@H](C)C(=O)N[C@H](C(=O)NCC#N)Cc4ccc(OCCN)c(c4)-c4cc3ccc4OCCN)cc2)cc1 [Compound 249]
- MIC [1, 5]: 0.13 µg/mL (≈ 0.151 µM)
- MIC [2]: 0.012 µg/mL (≈ 0.0139 µM)
- MIC [3, 6]: 0.69 µg/mL (≈ 0.801 µM)
- IC50 [4]: 1.2 nM

SMILES: Cc1cc(Oc2ccc(C(C)(C)C)cc2)ccc1C(=O)N[C@@H](CCN)C(=O)N(C)[C@@H]1C(=O)N[C@@H](C)C(=O)N[C@H](C(=O)NCC#N)Cc2ccc(OCCN)c(c2)-c2cc1ccc2OCCN [Compound 302]
- MIC [1, 7]: 0.031 µg/mL (≈ 0.0343 µM)
- MIC [3, 8]: 0.25 µg/mL (≈ 0.277 µM)
- IC50 [4]: 0.79 nM

SMILES: CCCCCc1ncc(C(=O)N[C@@H](CCN)C(=O)N(C)[C@@H]2C(=O)N[C@@H](C)C(=O)N[C@H](C(=O)NCC#N)Cc3ccc(OCCN)c(c3)-c3cc2ccc3OCCN)c(C)n1 [Compound 200]
- MIC [1, 5]: 1 µg/mL (≈ 1.21 µM)
- MIC [3, 6]: 4 µg/mL (≈ 4.83 µM)
- IC50 [4]: 2.8 nM

SMILES: CCCCc1ccc(-c2ccc(C(=O)N[C@@H](CN)C(=O)N(C)[C@@H]3C(=O)N[C@@H](C)C(=O)N[C@H](C(=O)N[C@@H](C)C#N)Cc4ccc(OCCN)c(c4)-c4cc3ccc4OCCN)cc2)cc1 [Compound 340]
- MIC [2]: < 0.063 µg/mL
- MIC [3, 6]: 0.75 µg/mL (≈ 0.858 µM)
- IC50 [4]: 0.69 nM

SMILES: C[C@@H]1NC(=O)[C@@H](N(C)C(=O)[C@H](CCCCN)NC(=O)c2ccc(-c3ccc(Cl)cc3)cc2)c2ccc(OCCN)c(c2)-c2cc(ccc2O)C[C@@H](C(=O)NCC#N)NC1=O [Compound 318]
- IC50 [4]: 0.8 nM

SMILES: C[C@@H]1NC(=O)[C@@H](N(C)C(=O)[C@H](CCCCN)NC(=O)c2ccc(-c3ccc(Cl)cc3)cc2)c2ccc(O)c(c2)-c2cc(ccc2O)C[C@@H](C(=O)NCC#N)NC1=O [Compound 416]
- MIC [1, 7]: 0.5 µg/mL (≈ 0.629 µM)
- MIC [2]: 2 µg/mL (≈ 2.52 µM)
- MIC [3, 8]: > 64 µg/mL

SMILES: Cc1ccc(C(=O)N[C@@H](CCN)C(=O)N(C)[C@@H]2C(=O)N[C@@H](C)C(=O)N[C@H](C(=O)NCC#N)Cc3ccc(OCCN)c(c3)-c3cc2ccc3OCCN)c(C)c1 [Compound 128]
- MIC [1, 5]: 4 µg/mL (≈ 5.2 µM)
- MIC [2]: 0.5 µg/mL (≈ 0.649 µM)
- MIC [3, 6]: 16 µg/mL (≈ 20.8 µM)

SMILES: Cc1cc(C2(C)CC2)ccc1C(=O)N[C@@H](CCN)C(=O)N(C)[C@@H]1C(=O)N[C@@H](C)C(=O)N[C@H](C(=O)NCC#N)Cc2ccc(OCCN)c(c2)-c2cc1ccc2OCCN [Compound 435]
- MIC [1, 5]: 0.5 µg/mL (≈ 0.617 µM)
- MIC [2]: 0.063 µg/mL (≈ 0.0778 µM)
- MIC [3, 6]: 4 µg/mL (≈ 4.94 µM)

SMILES: CCCCCCc1ccc(C(=O)N2CCC(N)C[C@H]2C(=O)N(C)[C@@H]2C(=O)N[C@@H](C)C(=O)N[C@H](C(=O)NCC#N)Cc3ccc(OCCN)c(c3)-c3cc2ccc3OCCN)c(C)c1 (single isomer, unassigned) [Compound 526-2]
- MIC (μg/mL) S. aureus ([1]; MRSA USA 300 NRS384): >0.5 µg/mL
- MIC (μg/mL) E. coli IMP ([2]; E. coli MC4100 IMP4213, increased outer-membrane permeability): >0.13 µg/mL
- MIC (μg/mL) E. coli ([3]; E. coli ATCC 25922): 64 µg/mL (≈ 73.9 µM)

SMILES: CCCCCCCCCCCCCC(=O)N[C@@H](CCN)C(=O)N(C)[C@@H]1C(=O)N[C@@H](C)C(=O)N[C@H](C(=O)NCC#N)Cc2ccc(OCC(=O)OC(C)(C)C)c(c2)-c2cc1ccc2OCCN [Compound 328]
- MIC [1, 5]: 1 µg/mL (≈ 1.09 µM)
- MIC [2]: 0.25 µg/mL (≈ 0.272 µM)
- MIC [3, 6]: 4 µg/mL (≈ 4.35 µM)

SMILES: C[C@@H]1NC(=O)[C@@H](N(C)C(=O)[C@H](CCN)NC(=O)c2ccc3c(c2)CCCC3)c2ccc(OCCN)c(c2)-c2cc(ccc2OCCN)C[C@@H](C(=O)NCC#N)NC1=O [Compound 119]
- MIC [1, 5]: 1 µg/mL (≈ 1.26 µM)
- MIC [2]: 0.25 µg/mL (≈ 0.314 µM)
- MIC [3, 6]: 16 µg/mL (≈ 20.1 µM)

SMILES: CCCCCCc1ccc(S(=O)(=O)N[C@@H](CCN)C(=O)N(C)[C@@H]2C(=O)N[C@@H](C)C(=O)N[C@H](C(=O)NCC#N)Cc3ccc(OCCN)c(c3)-c3cc2ccc3OCCN)c(C)c1 [Compound 347]
- MIC [1, 7]: 0.063 µg/mL (≈ 0.0719 µM)
- MIC [2]: 0.063 µg/mL (≈ 0.0719 µM)
- MIC [3, 8]: 8 µg/mL (≈ 9.13 µM)

SMILES: CCCCCCCCCCCC(=O)N[C@@H](CCC#N)C(=O)N(C)[C@@H]1C(=O)N[C@@H](C)C(=O)N[C@H](C(=O)NCC#N)Cc2ccc(OCCN)c(c2)-c2cc1ccc2OCCN [Compound 455]
- MIC [1, 5]: 0.5 µg/mL (≈ 0.602 µM)
- MIC [2]: 0.5 µg/mL (≈ 0.602 µM)
- MIC [3, 6]: 32 µg/mL (≈ 38.6 µM)

SMILES: CCCCCc1ccc(C(=O)N[C@@H](CCN)CC(=O)N(C)[C@@H]2C(=O)N[C@@H](C)C(=O)N[C@H](C(=O)NCC#N)Cc3ccc(OCCN)c(c3)-c3cc2ccc3OCCN)c(C)c1 [Compound 512]
- MIC [1, 5]: 0.38 µg/mL (≈ 0.452 µM)
- MIC [2]: 0.5 µg/mL (≈ 0.595 µM)
- MIC [3, 6]: 64 µg/mL (≈ 76.2 µM)

SMILES: CCCCCCCCc1ccc(C(=O)N[C@@H](CCCN)C(=O)N(C)[C@@H]2C(=O)N[C@@H](C)C(=O)N[C@H](C(=O)NCC#N)Cc3ccc(OC)c(c3)-c3cc2ccc3OC)cc1 [Compound 471]
- MIC [2]: < 0.063 µg/mL
- MIC [3, 6]: 48 µg/mL (≈ 59.3 µM)
- IC50 [4]: 10 nM

SMILES: Cc1nc(-c2ccc(-c3ccccc3)cc2)ncc1C(=O)N[C@@H](CCN)C(=O)N(C)[C@@H]1C(=O)N[C@@H](C)C(=O)N[C@H](C(=O)NCC#N)Cc2ccc(OCCN)c(c2)-c2cc1ccc2OCCN [Compound 158]
- MIC [1, 5]: 0.031 µg/mL (≈ 0.0341 µM)
- MIC [2]: 0.002 µg/mL (≈ 0.0022 µM)
- MIC [3, 6]: 0.11 µg/mL (≈ 0.121 µM)

Reference: patent US20180327367A1, “MACROCYCLIC BROAD SPECTRUM ANTIBIOTICS” (priority 2015, published 2018)
